Source: patent publication US8506950B2, “Degradable microcapsules” (ETH Zurich, priority 2008, dated 2013)

How the values were obtained:
[1] = target: T1, bovine luteinizing hormone receptor (bLHR) (Bos taurus, UniProt Q28005); test: Intracellular cAMP in HEK293T cells transiently expressing bLHR, induced by bLH; format: cell-based; details: 500 ng/ml bLH, 1 h post-induction, bLHR expressed, vs non-induced cells
T1 construct: Full-length cDNAs encoding the LHRs of rat (r) and bovine (b) origin; expressed in transfected cells; host or cells: HEK293T, transient transfection with pcDNA3.1-bLHR
T1 sequence (Q28005 27-701): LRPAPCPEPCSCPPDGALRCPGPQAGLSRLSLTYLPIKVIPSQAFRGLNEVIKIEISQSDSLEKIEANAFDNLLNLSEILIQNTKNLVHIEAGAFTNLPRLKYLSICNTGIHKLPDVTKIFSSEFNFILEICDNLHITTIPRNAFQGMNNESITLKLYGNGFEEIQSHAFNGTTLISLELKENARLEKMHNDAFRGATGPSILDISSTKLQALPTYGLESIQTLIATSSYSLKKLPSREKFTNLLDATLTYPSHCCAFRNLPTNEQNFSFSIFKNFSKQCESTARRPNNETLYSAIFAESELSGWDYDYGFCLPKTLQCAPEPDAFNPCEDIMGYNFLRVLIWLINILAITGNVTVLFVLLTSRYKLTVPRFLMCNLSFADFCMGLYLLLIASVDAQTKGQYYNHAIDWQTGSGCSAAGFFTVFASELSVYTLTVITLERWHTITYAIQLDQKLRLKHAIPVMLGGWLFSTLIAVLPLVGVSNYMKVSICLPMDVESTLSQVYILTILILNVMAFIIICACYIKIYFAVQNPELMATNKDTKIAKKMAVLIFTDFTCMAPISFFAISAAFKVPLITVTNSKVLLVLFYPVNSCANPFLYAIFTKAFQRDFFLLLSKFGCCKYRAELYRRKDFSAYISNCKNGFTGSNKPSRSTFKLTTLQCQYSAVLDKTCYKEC
Description: HEK293T cells were transiently transfected for constitutive bLHR or rLHR expression. 48 hours post-transfection the cells were induced by the addition of 500 ng/ml bLH. The intracellular cAMP-levels were determined 1 h post-induction. […] (□) no bLH, (▪) 500 ng/mL bLH.
Full-length cDNAs encoding the LHRs of rat (r) and bovine (b) origin were cloned under control of the strong constitutive human cytomegalovirus promoter (PCMV) as previously described [Kawate N, Tamada H, Inaba T, Sawada T, Journal of Reproduction and Development 2002; 48:8; Ulaner G A, Chuang J, Lin W, Woodbury D, Myers R V, Moyle W R, J Endocrinol 1999; 163:289-97]. The expression vectors were transiently transfected into HEK293T cells. The functionality of the expressed LHRs was determined 48 hours post-transfection by assaying the intracellular cAMP increase in response to the presence of bLH (FIG. 7). […] However, when the rLHR was expressed the detected cAMP-level increased to 29-fold level of the non-induced cells. […]
The intracellular cAMP production of cells was quantified using the cAMP Fluorescence Polarization (FP) Biotrak Immunoassay System (GE Healthcare Bio-Sciences GmbH, Otelfingen, Switzerland, Cat No. RPN3595) according to the manufacturer's protocol. The expression of firefly luciferase was determined with the Tropix Luciferase Assay Kit (Applied Biosystems, Bedford, USA, Cat No. BC100L). […]

rLHR = rLHR (Rattus norvegicus, UniProt P16235); test: bLH-dependent disruption of CS/pDADMAC microcapsules containing CK04 cells transfected with pCK71; format: cell-based; parameters: Full-length cDNAs encoding the LHRs of rat (r) and bovine (b) origin; expressed in transfected cells; host or cells: CK04: HEK293T stably cotransfected with pLEN-rLHR and pZeoSV2(+), clone 6; details: 500 ng/ml bLH, 24 hours post-induction
Chain of rLHR (P16235 27-700): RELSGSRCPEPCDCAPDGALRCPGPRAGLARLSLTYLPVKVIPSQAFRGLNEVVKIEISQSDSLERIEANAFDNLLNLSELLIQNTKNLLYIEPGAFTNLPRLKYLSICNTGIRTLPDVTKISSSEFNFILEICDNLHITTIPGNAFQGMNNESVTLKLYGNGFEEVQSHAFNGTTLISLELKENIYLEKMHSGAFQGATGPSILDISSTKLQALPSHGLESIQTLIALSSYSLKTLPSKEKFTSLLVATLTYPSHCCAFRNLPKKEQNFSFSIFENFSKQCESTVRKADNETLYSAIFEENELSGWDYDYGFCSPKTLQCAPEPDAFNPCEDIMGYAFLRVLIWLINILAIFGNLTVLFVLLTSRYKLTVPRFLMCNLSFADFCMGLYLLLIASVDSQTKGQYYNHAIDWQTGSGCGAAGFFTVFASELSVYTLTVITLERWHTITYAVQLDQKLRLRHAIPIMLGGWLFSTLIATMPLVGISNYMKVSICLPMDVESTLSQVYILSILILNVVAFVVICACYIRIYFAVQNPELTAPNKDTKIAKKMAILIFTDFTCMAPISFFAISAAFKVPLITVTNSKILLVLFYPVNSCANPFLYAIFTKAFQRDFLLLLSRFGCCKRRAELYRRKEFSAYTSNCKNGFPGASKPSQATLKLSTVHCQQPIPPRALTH
Description: (A) Phase-contrast photomicrographs of CS/pDADMAC encapsulated CK04 cells transiently transfected for PCRE controlled cellulase expression (pCK71, PCRE-cellulase-pA). The microcapsules were cultured in the absence or presence of 500 ng/ml bLH. In the presence of bLH the capsules were disrupted by the induced expression of cellulase whereas the non-induced capsules remained intact. Arrows indicate the disrupted capsules.
(B) Quantification of microcapsule disruption. Per sample approximately 150 capsules were counted and the amount of capsule disruption was calculated. 24 hours post-induction 98% of the capsules were disrupted by the induced cellulase. […]
Cells were encapsulated using the Inotech Encapsulator Research Unit IE-50R (Inotech Biotechnologies Ltd, Basel, Switzerland). […] The cells were counted using a Casy Counter (Scharfe Systems, Reutlingen, Germany) and 1×10^6 cells were resuspended in sodium […] sulfate solution (2% (w/v) in PBS, CS, Euroferm, Erlangen, Germany, Batch-No: FCY-06A) and aseptically encapsulated according to the standard protocol using the following settings: 0.2 mm nozzle with a nozzle vibration frequency of 1250 Hz, 20 ml syringe at a flow rate of 410 units, voltage for bead dispersion 1.15 kV. […]

bovine luteinizing hormone [bLH]
increase in intracellular cAMP [1]: 12 fold
disrupted capsules (rLHR): 98%
